From publication PMC10018608 (Signal Transduction and Targeted Therapy, 2023)
Read-outs that look alike come from different tables or passages of the source.

Experiments:
in vitro [1] = type: in vitro ADME; conditions: human, microsomes, HLM 0.5 mg/mL, 1 μM; for remaining at 0 h: 0 min, read-out: Percent Remaining (%) 0 min; for remaining at 0 h / remaining at 5 min / remaining at […] / remaining at 0.5 h / remaining at 0.75 h / remaining at 1 h: Mean; for remaining at 5 min: read-out: Percent Remaining (%) 5 min; for remaining at […]: 15 min, read-out: Percent Remaining (%) 15 min; for remaining at 0.5 h: 30 min, read-out: Percent Remaining (%) 30 min; for remaining at 0.75 h: 45 min, read-out: Percent Remaining (%) 45 min; for remaining at 1 h: 60 min, read-out: Percent Remaining (%) 60 min; for CLint scaled: scaling factor 1254.2
[2] = SD rats
in vitro [3] = type: cell-based
Description: Cells were seeded and grown in 96 well plates overnight. Then various concentrations of compounds in fresh medium were added and incubated for 72 h. Using MTT (Sigma) assay to determine the cell viability.

in vivo = conditions: male, Sprague-Dawley, rat
SARS-CoV-2 (BA.2) = assay: Plaque reduction assay in VeroE6-TMPRSS2; type: cell-based; conditions: Severe acute respiratory syndrome coronavirus 2
SARS-CoV-2 (B.1.1.7) = assay: Plaque reduction assay in VeroE6-TMPRSS2; type: cell-based; conditions: Severe acute respiratory syndrome coronavirus 2
SARS-CoV-2 (BA.5) = assay: microbe, parasite or virus in culture; type: cell-based; conditions: Severe acute respiratory syndrome coronavirus 2, VeroE6-TMPRSS2, read-out: EC50 (plaque reduction)
SARS-CoV-2 (B.1.351) = assay: Plaque reduction assay in VeroE6-TMPRSS2; type: cell-based; conditions: Severe acute respiratory syndrome coronavirus 2
SARS-CoV-1 = assay: microbe, parasite or virus in culture; type: cell-based; conditions: Severe acute respiratory syndrome coronavirus, VeroE6/TMPRSS2, read-out: EC50 (plaque reduction)
MERS-CoV = assay: microbe, parasite or virus in culture; type: cell-based; conditions: Middle East respiratory syndrome-related coronavirus, VeroE6/TMPRSS2, read-out: EC50 (plaque reduction)
in vitro [4] = type: in vitro ADME, human; conditions: human, plasma
[5] = African green monkey, VeroE6, MTT, 72 h

Row | Compound | half-life (in vitro [1]) | remaining at 0 h (in vitro [1]) | remaining at 5 min (in vitro [1]) | remaining at […] (in vitro [1]) | remaining at 0.5 h (in vitro [1]) | remaining at 0.75 h (in vitro [1]) | remaining at 1 h (in vitro [1]) | CLint scaled (in vitro [1]) | MTRlast ([2]; i.v. (1 mg/kg)) | Vzobs ([2]; i.v. (1 mg/kg)) | MTRlast ([2]; p.o. (10 mg/kg)) | CC50 (in vitro [3]; [5]) | CC50 (in vitro [3]; human, BEAS-2B, MTT, 72 h) | CC50 (in vitro [3]; human, HUVEC, MTT, 72 h) | AUC(0-inf) (in vivo; iv, 1 mg/kg) | AUC(0-t) (in vivo; iv, 1 mg/kg) | Cmax (in vivo; iv, 1 mg/kg) | Tmax (in vivo; iv, 1 mg/kg) | clearance (in vivo; iv, 1 mg/kg) | half-life (in vivo; iv, 1 mg/kg) | further results
1 | O=C(CC1CC(F)(F)C1)NCC(=O)N[C@H](Cc1ccccc1)C(=O)C(=O)NCc1nccs1 [3q] | 0.426 h | 100% | 86% | 63.1% | 40.1% | 30.3% | 19.1% | 68.1 mL/min/kg |  |  |  |  |  |  |  |  |  |  |  |  | 
2 | C[C@@H](NC(=O)C1CCC(F)(F)CC1)C(=O)N[C@H](Cc1ccccc1)C(=O)C(=O)NCc1nccs1 [3r] | 0.594 h | 100% | 91.5% | 73.2% | 51% | 39.1% | 32.5% | 48.8 mL/min/kg | 1.31 ± 0.54 h | 3.05 ± 2.08 L/kg | 4.89 ± 1.14 h | > 500 µM | > 500 µM | > 500 µM | 1020 ± 262 ng·h/mL | 1010 ± 258 ng·h/mL | 1110 ± 70 ng/mL | 0.08 h | 17 ± 3.8 mL/min/kg | 2.41 ± 2.24 h | AUC(0-inf) (in vivo; po, 10 mg/kg): 2840 ± 327 ng·h/mL; AUC(0-t) (in vivo; po, 10 mg/kg): 2570 ± 679 ng·h/mL; Cmax (in vivo; po, 10 mg/kg): 306 ± 32.1 ng/mL; Tmax (in vivo; po, 10 mg/kg): 2.67 ± 1.15 h; bioavailability (in vivo; po, 10 mg/kg): 25.4 ± 6.71%; half-life (in vivo; po, 10 mg/kg): 3.01 ± 0.91 h
3 | C[C@@H](NC(=O)C1CCCC(F)(F)C1)C(=O)N[C@H](Cc1ccccc1)C(=O)C(=O)NCc1nccs1 (some centres unmarked) [3s] | 0.424 h | 100% | 81.7% | 64.2% | 42% | 28.4% | 18.9% | 68.4 mL/min/kg |  |  |  |  |  |  |  |  |  |  |  |  | 
4 | C[C@@H](NC(=O)C1CCC(F)(F)C1)C(=O)N[C@H](Cc1ccccc1)C(=O)C(=O)NCc1nccs1 (some centres unmarked) [3t] | 0.704 h | 100% | 89.1% | 73.5% | 56.2% | 46.2% | 37% | 41.2 mL/min/kg | 1.26 ± 0.42 h | 2.49 ± 1.61 L/kg | 5.90 ± 0.79 h | > 500 µM | > 500 µM | > 500 µM | 1330 ± 556 ng·h/mL | 1290 ± 531 ng·h/mL | 1320 ± 168 ng/mL | 0.08 h | 14.5 ± 7.25 mL/min/kg | 1.9 ± 0.27 h | AUC(0-inf) (in vivo; po, 10 mg/kg): 6900 ± 2620 ng·h/mL; AUC(0-t) (in vivo; po, 10 mg/kg): 6720 ± 2460 ng·h/mL; Cmax (in vivo; po, 10 mg/kg): 635 ± 161 ng/mL; Tmax (in vivo; po, 10 mg/kg): 1.67 ± 0.58 h; bioavailability (in vivo; po, 10 mg/kg): 52 ± 19.1%; half-life (in vivo; po, 10 mg/kg): 4.15 ± 1.48 h
5 | C[C@@H](NC(=O)CC1CC(F)(F)C1)C(=O)N[C@H](Cc1ccccc1)C(=O)C(=O)NCc1nccs1 [3u] |  |  |  |  |  |  |  |  | 3.19 ± 0.31 h | 3.65 ± 0.74 L/kg | 6.57 ± 0.38 h | > 500 µM | > 500 µM | > 500 µM | 2250 ± 672 ng·h/mL | 2200 ± 634 ng·h/mL | 1570 ± 201 ng/mL | 0.08 h | 7.95 ± 2.8 mL/min/kg | 5.47 ± 0.77 h | AUC(0-inf) (in vivo; po, 10 mg/kg): 8700 ± 1120 ng·h/mL; AUC(0-t) (in vivo; po, 10 mg/kg): 8180 ± 795 ng·h/mL; Cmax (in vivo; po, 10 mg/kg): 735 ± 102 ng/mL; Tmax (in vivo; po, 10 mg/kg): 1.33 ± 0.58 h; bioavailability (in vivo; po, 10 mg/kg): 37.2 ± 3.62%; half-life (in vivo; po, 10 mg/kg): 5.84 ± 1.3 h
6 | COC[C@@H](NC(=O)C1CCC(F)(F)CC1)C(=O)N[C@H](Cc1ccccc1)C(=O)C(=O)NCc1nccs1 [3v] | 0.65 h | 100% | 88.3% | 73.2% | 54.5% | 42.3% | 34.7% | 44.6 mL/min/kg | 3.55 ± 0.52 h | 5.25 ± 2.13 L/kg | 7.63 ± 0.57 h | 132 ± 19.8 µM | 159 ± 4.34 µM | 129 ± 13.4 µM | 2830 ± 959 ng·h/mL | 2570 ± 820 ng·h/mL | 1700 ± 237 ng/mL | 0.08 h | 6.48 ± 2.63 mL/min/kg | 9.49 ± 2.16 h | CC50 (in vitro [3]; human (BEAS-2B, African green monkey (VeroE6)), across BEAS-2B, VeroE6, and HUVEC cells, MTT): 129 to 159 µM; AUC(0-inf) (in vivo; po, 10 mg/kg): 14000 ± 783 ng·h/mL; AUC(0-t) (in vivo; po, 10 mg/kg): 12700 ± 1270 ng·h/mL; Cmax (in vivo; po, 10 mg/kg): 1010 ± 115 ng/mL; Tmax (in vivo; po, 10 mg/kg): 4 h; bioavailability (in vivo; po, 10 mg/kg): 49.2 ± 4.92%; half-life (in vivo; po, 10 mg/kg): 6.64 ± 1.17 h
7 | COC[C@@H](NC(=O)CC1CC(F)(F)C1)C(=O)N[C@H](Cc1ccccc1)C(=O)C(=O)NCc1nccs1 [3x] | 0.507 h | 100% | 91.1% | 71.5% | 50.5% | 34.3% | 26.5% | 57.2 mL/min/kg | 3.18 ± 0.53 h | 3.28 ± 1.17 L/kg | 6.47 ± 0.50 h | > 500 µM | > 500 µM | > 500 µM | 2390 ± 645 ng·h/mL | 2360 ± 639 ng·h/mL | 1350 ± 116 ng/mL | 0.08 h | 7.3 ± 1.9 mL/min/kg | 5.09 ± 0.57 h | AUC(0-inf) (in vivo; po, 10 mg/kg): 11200 ± 364 ng·h/mL; AUC(0-t) (in vivo; po, 10 mg/kg): 10800 ± 124 ng·h/mL; Cmax (in vivo; po, 10 mg/kg): 806 ± 75.4 ng/mL; Tmax (in vivo; po, 10 mg/kg): 2 h; bioavailability (in vivo; po, 10 mg/kg): 45.8 ± 0.52%; half-life (in vivo; po, 10 mg/kg): 4.67 ± 1.04 h
8 | O=C(c1ccc(F)cc1)C1CCN(CCn2c(=O)[nH]c3ccccc3c2=O)CC1 [Ketanserin, reference compound] | 0.373 h |  | 86.9% | 62.2% | 38.1% | 24.4% | 15.9% | 77.6 mL/min/kg |  |  |  |  |  |  |  |  |  |  |  |  | 
9 | CC(C)(C)[C@H](NC(=O)C(F)(F)F)C(=O)N1C[C@H]2[C@@H]([C@H]1C(=O)N[C@H](C#N)C[C@@H]1CCNC1=O)C2(C)C [Nirmatrelvir, reference compound] | 0.407 h | 100% | 86.5% | 60% | 38.7% | 26% | 18.6% | 71.2 mL/min/kg |  |  |  |  |  |  |  |  |  |  |  |  | EC50 (SARS-CoV-2 (BA.2)): 1.08 µM; EC50 (SARS-CoV-2 (B.1.1.7)): 49.4 µM; EC50 (SARS-CoV-2 (BA.5)): 5.05 µM; EC50 (SARS-CoV-2 (B.1.351)): 28.8 µM; EC50 (SARS-CoV-1): 7.66 µM; EC50 (MERS-CoV): 11.3 µM
10 | CC(=O)CC(c1ccccc1)c1c(O)c2ccccc2oc1=O (centres unmarked) [Warfarin, reference compound] |  |  |  |  |  |  |  |  |  |  |  |  |  |  |  |  |  |  |  |  | fraction unbound (in vitro [4]): 0.009
